The source made the active and inactive calls. No cut-off for these calls is given here.
Columns and labels:
[1] = tested on: Pseudomonas aeruginosa; assay: Antibacterial activity against Pseudomonas aeruginosa PAO1 assessed as inhibition of bacterial growth incubated for 24 hrs by CLSI protocol based method; format: functional
[2] = tested on: Pseudomonas aeruginosa; assay: Antibacterial activity against Pseudomonas aeruginosa PAO1 assessed as inhibition of bacterial growth at 0.1 to 50 uM measured upto 24 hrs by CLSI protocol based method; format: functional, organism-based; conditions: dose 0.1-50 µM
[3] = Inhibition of quorum sensing system in Pseudomonas aeruginosa PAO1 transfected with mini-ctx-pqsA-lacZ reporter gene assessed as decrease in beta-galactosidase activity incubated for 6 hrs by Miller assay; conditions: dose 1.25-20 µM
[4] = tested on: Pseudomonas aeruginosa; assay: Antibiofilm activity against Pseudomonas aeruginosa harboring pvds-deficient mutant assessed as inhibition of biofilm formation at 0.1 to 20 uM incubated for 24 hrs by crystal violet staining based analysis; format: functional, organism-based; conditions: dose 0.1-20 µM
[5] = tested on: Pseudomonas aeruginosa; assay: Antibacterial activity against Pseudomonas aeruginosa clinical isolate FB assessed as inhibition of bacterial growth incubated for 24 hrs by CLSI protocol based method; format: functional, organism-based
[6] = tested on: Pseudomonas aeruginosa; assay: Antibacterial activity against Pseudomonas aeruginosa clinical isolate 1129 assessed as inhibition of bacterial growth incubated for 24 hrs by CLSI protocol based method; format: functional, organism-based
[7] = tested on: Pseudomonas aeruginosa; assay: Antibacterial activity against Pseudomonas aeruginosa clinical isolate 0815 assessed as inhibition of bacterial growth incubated for 24 hrs by CLSI protocol based method; format: functional, organism-based
[8] = tested on: Pseudomonas aeruginosa; assay: Antibacterial activity against Pseudomonas aeruginosa clinical isolate 1031 assessed as inhibition of bacterial growth incubated for 24 hrs by CLSI protocol based method; format: functional, organism-based
[9] = tested on: Pseudomonas aeruginosa; assay: Antibacterial activity against Pseudomonas aeruginosa clinical isolate 1065 assessed as inhibition of bacterial growth incubated for 24 hrs by CLSI protocol based method; format: functional, organism-based
[10] = tested on: Pseudomonas aeruginosa; assay: Antivirulence activity in Pseudomonas aeruginosa clinical isolate 0815 assessed as reduction in elastase production at 10 uM incubated for 24 hrs by elastin-congo red dye based absorbance assay; format: functional, organism-based
[11] = tested on: Pseudomonas aeruginosa; assay: Antivirulence activity in Pseudomonas aeruginosa clinical isolate 0815 assessed as reduction in rhamnolipid production at 10 uM incubated for 24 hrs by absorbance based microtiter plate reader analysis; format: functional, organism-based
[12] = tested on: Pseudomonas aeruginosa; assay: Antivirulence activity in Pseudomonas aeruginosa clinical isolate 1121 assessed as reduction in rhamnolipid production at 10 uM incubated for 24 hrs by absorbance based microtiter plate reader analysis; format: functional, organism-based
[13] = tested on: Pseudomonas aeruginosa; assay: Antibiofilm activity against Pseudomonas aeruginosa clinical isolate 0815 assessed as reduction in biofilm content at 10 uM incubated for 24 hrs by crystal violet staining based analysis; format: functional, organism-based
[14] = tested on: Pseudomonas aeruginosa; assay: Synergistic antibacterial activity against Pseudomonas aeruginosa PAO1 assessed as reduction in cell viability at 10 to 50 uM incubated for 24 hrs in the presence of 1/2 MIC of tobramycin by LB agar plate method; format: functional, organism-based; conditions: dose 10-50 µM
[15] = tested on: Pseudomonas aeruginosa; assay: Synergistic antibacterial activity against Pseudomonas aeruginosa PAO1 assessed as reduction in cell viability at 10 to 50 uM incubated for 24 hrs in the presence of 1/4 MIC of polymyxin B by LB agar plate method; format: functional, organism-based; conditions: dose 10-50 µM
[16] = tested on: Pseudomonas aeruginosa; assay: Antibacterial activity against Pseudomonas aeruginosa PAO1 assessed as bacterial survival rate at 10 to 50 uM incubated for 24 hrs by LB agar plate method relative to control; format: functional; conditions: dose 10-50 µM
[17] = tested on: Pseudomonas aeruginosa; assay: Synergistic antibacterial activity against Pseudomonas aeruginosa PAO1 assessed as fold reduction in bacterial survival rate incubated for 24 hrs in presence of azithromycin by LB agar plate method; format: functional
[18] = tested on: Pseudomonas aeruginosa; assay: Synergistic antibacterial activity against Pseudomonas aeruginosa clinical isolate 0815 assessed as reduction in bacterial viability at 10 to 50 uM incubated for 24 hrs in presence of 1/4 MIC of tobramycin by LB agar plate method; format: functional, organism-based; conditions: dose 10-50 µM
[19] = tested on: Pseudomonas aeruginosa; assay: Synergistic antibacterial activity against Pseudomonas aeruginosa clinical isolate 0815 assessed as reduction in bacterial viability at 10 to 50 uM incubated for 24 hrs in presence of 1/8 MIC of tobramycin by LB agar plate method; format: functional, organism-based; conditions: dose 10-50 µM
[20] = tested on: Pseudomonas aeruginosa; assay: Synergistic antibacterial activity against Pseudomonas aeruginosa clinical isolate 1167 assessed as reduction in bacterial viability at 10 to 50 uM incubated for 24 hrs in presence of 1/8 MIC of tobramycin by LB agar plate method; format: functional, organism-based; conditions: dose 10-50 µM
[21] = tested on: Pseudomonas aeruginosa; assay: Synergistic antibacterial activity against Pseudomonas aeruginosa clinical isolate 0815 assessed as reduction in bacterial viability at 10 to 50 uM incubated for 24 hrs in presence of 1/2 MIC of polymyxin B by LB agar plate method; format: functional, organism-based; conditions: dose 10-50 µM
[22] = tested on: Pseudomonas aeruginosa; assay: Synergistic antibacterial activity against Pseudomonas aeruginosa clinical isolate 0815 assessed as reduction in bacterial viability at 10 to 50 uM incubated for 24 hrs in presence of 1/8 MIC of polymyxin B by LB agar plate method; format: functional, organism-based; conditions: dose 10-50 µM
[23] = tested on: Pseudomonas aeruginosa; assay: Synergistic antibacterial activity against Pseudomonas aeruginosa clinical isolate 1167 assessed as reduction in bacterial viability at 10 to 50 uM incubated for 24 hrs in presence of 1/4 MIC of polymyxin B by LB agar plate method; format: functional, organism-based; conditions: dose 10-50 µM
[24] = tested on: Pseudomonas aeruginosa; assay: Synergistic antibacterial activity against Pseudomonas aeruginosa clinical isolate 1121 assessed as reduction in bacterial viability at 10 to 50 uM incubated for 24 hrs in presence of 1/2 MIC of polymyxin B by LB agar plate method; format: functional, organism-based; conditions: dose 10-50 µM
[25] = tested on: Pseudomonas aeruginosa; assay: Synergistic antibacterial activity against Pseudomonas aeruginosa clinical isolate 1121 assessed as reduction in bacterial viability at 10 to 50 uM incubated for 24 hrs in presence of 1/4 MIC of polymyxin B by LB agar plate method; format: functional, organism-based; conditions: dose 10-50 µM
[26] = tested on: Pseudomonas aeruginosa; assay: Synergistic antibacterial activity against Pseudomonas aeruginosa clinical isolate 1121 assessed as reduction in bacterial viability at 10 to 50 uM incubated for 24 hrs in presence of 1/8 MIC of polymyxin B by LB agar plate method; format: functional, organism-based; conditions: dose 10-50 µM
[27] = Cytotoxicity against African green monkey Vero cells assessed as reduction in cell viability at <=100 uM incubated for 24 hrs by MTT assay; format: toxicity, cell-based; conditions: chlorocebus sabaeus
[28] = Cytotoxicity against African green monkey Vero cells assessed as reduction in cell viability at 200 uM incubated for 24 hrs by MTT assay; format: toxicity, cell-based; conditions: chlorocebus sabaeus
[29] = Toxicity in Caenorhabditis elegans assessed as effect on survival upto 200 uM incubated for 72 hrs by bright-field microscopic analysis
[30] = tested on: Pseudomonas aeruginosa; assay: Antibacterial activity against Pseudomonas aeruginosa PAO1 infected in Caenorhabditis elegans assessed as worm survival at 50 uM by bright-field microscopic analysis (reference value: 24 hrs); format: functional
[31] = tested on: Pseudomonas aeruginosa; assay: Antibacterial activity against Pseudomonas aeruginosa PAO1 infected in Caenorhabditis elegans assessed as worm survival rate at 10 uM measured after 72 hrs in presence of tobramycin at 1/2 MIC by bright field microscopic analysis relative to control; format: functional
[32] = tested on: Pseudomonas aeruginosa; assay: Antibacterial activity against Pseudomonas aeruginosa PAO1 infected in Caenorhabditis elegans assessed as worm survival rate at 50 uM measured after 72 hrs in presence of tobramycin at 1/2 MIC by bright field microscopic analysis relative to control; format: functional
[33] = tested on: Pseudomonas aeruginosa; assay: Induction of Fe3+ chelating activity in Pseudomonas aeruginosa PAO1 assessed as increase in pyochelin production at 2.5 to 50 uM incubated for 24 hrs by fluorescence microplate reader; conditions: dose 2.5-50 µM
[34] = tested on: Pseudomonas aeruginosa; assay: Induction of Fe3+ chelating activity in Pseudomonas aeruginosa PAO1 assessed as increase in pyochelin production by measuring fold change at 50 uM incubated for 24 hrs by fluorescence microplate reader

Cc1cc(=O)c(O)c(C(=O)NCCCCCCCCNc2ccnc3cc(Cl)ccc23)n1C.Cl
MIC [1]: ≥ 512 µM | Activity [2]: inactive | inhibition [3]: Dose-Dependent Effect | Activity [4]: Active | Activity [5]: inactive | Activity [6]: inactive | Activity [7]: inactive | Activity [8]: inactive | Activity [9]: inactive | Activity [10]: Active | Activity [11]: Active | Activity [12]: Active | Activity [13]: Active | Activity [14]: Active | Activity [15]: Active | Survival [16]: ~100% | fold change (FC) [17]: <10 | Activity [18]: Active | Activity [19]: Active | Activity [20]: Active | Activity [21]: Active | Activity [22]: Active | Activity [23]: Active | Activity [24]: Active | Activity [25]: Active | Activity [26]: Active | Activity [27]: Non-Toxic | Activity [28]: Toxic | Activity [29]: Non-Toxic | Survival [30]: 56 h | survival at 10 µM [31]: 28.4% | survival at 50 µM [32]: 81.5% | Activity [33]: inactive | fold change (FC) [34]: 2
